Results as given in ChEMBL document CHEMBL4616706 (ACS Med Chem Lett, 2020).
Values after ≈ are worked out from the molar mass of the structure shown.

Assays:
Gamma-secretase [1] = experiment: Modulation of gamma secretase in human H4 cells overexpressing human APP695 harboring K595N/M596L Swedish double mutant assessed as reduction in total amyloid beta (1 to 42 residues) production measured after 24 hrs by AlphaLISA assay; assay type: cell-based
[2] = Clearance in human hepatocytes assessed per million cells; assay type: ADME, cell-based, Hepatocyte; conditions: read-out: CLH
[3] = Solubility of compound by LYSA assay; assay type: physicochemical
P-gp (ABCB1) = P-gp (ABCB1) (Homo sapiens, UniProt P08183); experiment: Substrate activity at human P-gp assessed as efflux ratio; assay type: ADME; conditions: not told
[4] = target: Voltage-gated inwardly rectifying potassium channel KCNH2 (Homo sapiens, UniProt Q12809); experiment: (§1) Inhibition of human ERG
hERG (KCNH2) = hERG (KCNH2) (Homo sapiens, UniProt Q12809); experiment: as §1; conditions: human
[5] = Unbound fraction in rat plasma; assay type: ADME, cell-free
[6] = Clearance in C57BL/6J mouse at 1 mg/kg, iv administered as single dose; assay type: ADME, organism-based; conditions: in vivo
[7] = Unbound fraction in mouse plasma; assay type: ADME, cell-free
Mus musculus = experiment: In vivo modulation of gamma secretase in APP Swedish double transgenic mouse assessed as reduction in free amyloid beta (1 to 42 residues) production measured after 4 hrs by AlphaLISA assay; assay type: functional, organism-based
[8] = Terminal half life in C57BL/6J mouse at 1 mg/kg, iv administered as single dose; assay type: ADME, organism-based; conditions: in vivo, read-out: beta t1/2 (converted)
[9] = Clearance in mouse hepatocytes assessed per million cells; assay type: ADME, cell-based, Hepatocyte; conditions: read-out: CLH
[10] = Genotoxicity in Salmonella typhimurium by Ames test; assay type: toxicity; conditions: salmonella enterica subsp. enterica serovar typhimurium
P-gp = experiment: Substrate activity at mouse P-gp assessed as efflux ratio; assay type: ADME; conditions: not told
[11] = Distribution coefficient, logD of compound; assay type: physicochemical; conditions: octanol/water
[12] = Unbound fraction in human plasma; assay type: ADME, cell-free
[13] = Volume of distribution at steady state in C57BL/6J mouse at 1 mg/kg, iv administered as single dose; assay type: ADME, organism-based; conditions: in vivo, read-out: Vdss
[14] = Modulation of mouse gamma secretase in N2A cells assessed as reduction in total amyloid beta (1 to 42 residues) production; assay type: cell-based
[15] = Clearance in rat hepatocytes assessed per million cells; assay type: ADME, cell-based, Hepatocyte; conditions: read-out: CLH
Gamma-secretase [16] = experiment: Modulation of human gamma secretase expressed in HEK293 cells assessed as reduction in free amyloid beta (1 to 42 residues) production; assay type: cell-based
[17] = Glutathione reactivity of compound; assay type: physicochemical
Gamma-secretase [18] = experiment: Modulation of gamma secretase in human H4 cells overexpressing human APP695 harboring K595N/M596L Swedish double mutant assessed as reduction in free amyloid beta (1 to 42 residues) production measured after 24 hrs by AlphaLISA assay; assay type: cell-based
[19] = Modulation of mouse gamma secretase in N2A cells assessed as reduction in free amyloid beta (1 to 42 residues) production; assay type: cell-based
[20] = Oral bioavailability in C57BL/6J mouse at 3 mg/kg administered as single dose; assay type: ADME, organism-based; conditions: in vivo
Gamma-secretase [21] = experiment: Modulation of human gamma secretase expressed in HEK293 cells assessed as reduction in total amyloid beta (1 to 42 residues) production; assay type: cell-based
[22] = Clearance in Wistar rat at 1 mg/kg, iv administered as single dose; assay type: ADME, organism-based; conditions: in vivo
[23] = Volume of distribution at steady state in Wistar rat at 1 mg/kg, iv administered as single dose; assay type: ADME, organism-based; conditions: in vivo, read-out: Vdss
[24] = Terminal half life in Wistar rat at 1 mg/kg, iv administered as single dose; assay type: ADME, organism-based; conditions: in vivo, read-out: beta t1/2 (converted)
[25] = Oral bioavailability in Wistar rat at 3 mg/kg administered as single dose; assay type: ADME, organism-based; conditions: in vivo

Chain of hERG (KCNH2) (Q12809 whole entry): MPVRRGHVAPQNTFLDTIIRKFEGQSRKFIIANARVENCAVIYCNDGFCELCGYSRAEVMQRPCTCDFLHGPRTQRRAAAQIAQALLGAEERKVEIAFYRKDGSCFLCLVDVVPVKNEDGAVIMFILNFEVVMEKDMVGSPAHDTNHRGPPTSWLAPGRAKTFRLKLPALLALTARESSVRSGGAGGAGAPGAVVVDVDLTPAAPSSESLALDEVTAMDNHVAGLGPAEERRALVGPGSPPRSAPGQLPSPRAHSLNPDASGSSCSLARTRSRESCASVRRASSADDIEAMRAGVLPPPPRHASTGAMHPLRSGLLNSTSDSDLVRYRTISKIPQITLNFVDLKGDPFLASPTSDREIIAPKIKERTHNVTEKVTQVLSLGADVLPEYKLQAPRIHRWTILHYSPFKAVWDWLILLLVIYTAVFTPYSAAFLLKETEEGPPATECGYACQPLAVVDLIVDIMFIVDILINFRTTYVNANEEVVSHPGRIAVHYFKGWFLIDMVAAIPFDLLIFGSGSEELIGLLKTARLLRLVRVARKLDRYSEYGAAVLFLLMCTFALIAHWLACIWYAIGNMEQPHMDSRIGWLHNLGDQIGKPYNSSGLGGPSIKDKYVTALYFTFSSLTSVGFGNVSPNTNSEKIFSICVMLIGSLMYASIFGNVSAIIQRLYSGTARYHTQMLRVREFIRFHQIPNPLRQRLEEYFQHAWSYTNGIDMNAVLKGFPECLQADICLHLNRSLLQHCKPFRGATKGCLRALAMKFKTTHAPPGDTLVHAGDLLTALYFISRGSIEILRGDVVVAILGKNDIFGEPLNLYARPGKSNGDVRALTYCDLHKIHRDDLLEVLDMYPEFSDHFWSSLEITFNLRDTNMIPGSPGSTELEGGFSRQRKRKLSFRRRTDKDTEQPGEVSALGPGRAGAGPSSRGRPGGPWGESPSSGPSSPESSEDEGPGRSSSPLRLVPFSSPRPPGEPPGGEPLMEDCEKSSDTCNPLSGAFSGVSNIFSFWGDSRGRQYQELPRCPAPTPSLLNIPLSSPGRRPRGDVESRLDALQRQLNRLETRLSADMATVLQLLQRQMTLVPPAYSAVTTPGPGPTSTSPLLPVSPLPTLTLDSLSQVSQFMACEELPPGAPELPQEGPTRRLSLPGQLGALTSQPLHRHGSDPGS
Chain of Voltage-gated inwardly rectifying potassium channel KCNH2 (Q12809 whole entry): as above
Chain of P-gp (ABCB1) (P08183 whole entry): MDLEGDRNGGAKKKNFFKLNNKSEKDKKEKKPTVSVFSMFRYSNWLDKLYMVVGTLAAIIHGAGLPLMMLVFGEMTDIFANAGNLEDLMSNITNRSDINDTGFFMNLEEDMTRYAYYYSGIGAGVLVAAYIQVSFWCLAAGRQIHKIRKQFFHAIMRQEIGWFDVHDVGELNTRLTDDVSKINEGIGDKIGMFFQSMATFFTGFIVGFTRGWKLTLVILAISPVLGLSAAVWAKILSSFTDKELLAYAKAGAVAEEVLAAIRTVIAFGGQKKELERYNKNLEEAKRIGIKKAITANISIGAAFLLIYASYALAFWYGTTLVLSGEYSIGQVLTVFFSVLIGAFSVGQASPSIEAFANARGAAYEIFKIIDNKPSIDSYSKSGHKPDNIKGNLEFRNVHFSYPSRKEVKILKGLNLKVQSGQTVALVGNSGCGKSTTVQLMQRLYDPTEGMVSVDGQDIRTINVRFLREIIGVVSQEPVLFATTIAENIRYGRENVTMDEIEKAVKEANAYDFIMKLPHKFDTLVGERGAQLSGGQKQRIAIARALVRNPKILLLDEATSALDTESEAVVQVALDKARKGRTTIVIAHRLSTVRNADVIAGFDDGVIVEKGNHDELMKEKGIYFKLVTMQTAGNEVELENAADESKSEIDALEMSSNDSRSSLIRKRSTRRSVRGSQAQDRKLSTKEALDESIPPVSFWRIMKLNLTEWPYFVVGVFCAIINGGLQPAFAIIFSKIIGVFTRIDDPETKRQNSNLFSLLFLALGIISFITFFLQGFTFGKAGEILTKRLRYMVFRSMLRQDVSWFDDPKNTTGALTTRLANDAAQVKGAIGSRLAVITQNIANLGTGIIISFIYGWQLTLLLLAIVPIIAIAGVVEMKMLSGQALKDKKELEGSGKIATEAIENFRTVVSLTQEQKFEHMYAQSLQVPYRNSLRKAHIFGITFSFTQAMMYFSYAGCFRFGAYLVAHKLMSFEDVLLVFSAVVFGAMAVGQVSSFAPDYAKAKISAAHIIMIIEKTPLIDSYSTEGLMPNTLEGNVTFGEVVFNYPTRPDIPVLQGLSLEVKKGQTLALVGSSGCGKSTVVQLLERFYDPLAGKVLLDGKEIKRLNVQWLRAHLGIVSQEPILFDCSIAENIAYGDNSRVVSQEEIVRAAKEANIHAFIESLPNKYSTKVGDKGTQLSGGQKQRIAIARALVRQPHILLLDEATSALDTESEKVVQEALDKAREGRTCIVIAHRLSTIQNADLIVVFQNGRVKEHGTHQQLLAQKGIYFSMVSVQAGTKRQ

Cc1cc(N2C[C@H]3CC[C@@H](C2)[C@@H]3Nc2nc3n(n2)CCCN3c2ccc(C(F)(F)F)cc2)ncn1
IC50 (Gamma-secretase [1]): 11 nM

Cc1noc(N2C[C@H]3CC[C@@H](C2)[C@@H]3Nc2nc3n(n2)CCCN3c2ccc(F)c(F)c2)n1
hepatocyte CLint [2]: 1.5 µL/min/1e6 cells
IC50 (Gamma-secretase [1]): 32 nM
solubility [3]: 158 µg/mL (≈ 357 µM)

Fc1ccc(N2CCCn3nc(N[C@@H]4[C@@H]5CC[C@H]4CN(c4ccnc(C(F)(F)F)c4)C5)nc32)cc1F
IC50 (Gamma-secretase [1]): 15 nM

COc1cc(N2C[C@H]3CC[C@@H](C2)[C@@H]3Nc2nc3n(n2)CCCN3c2ccc(F)c(F)c2)ccn1
efflux ratio (P-gp (ABCB1)): 1
hepatocyte CLint [2]: 3.8 µL/min/1e6 cells
IC50 (Gamma-secretase [1]): 16 nM
solubility [3]: 11 µg/mL (≈ 23.5 µM)
IC50 [4]: > 2000 nM
IC20 (hERG (KCNH2)): > 1000 nM

Cc1cc(N2C[C@H]3CC[C@@H](C2)[C@@H]3Nc2nc3n(n2)CCCN3c2ccc(F)c(F)c2)cnn1
efflux ratio (P-gp (ABCB1)): 3.3
hepatocyte CLint [2]: 2.3 µL/min/1e6 cells
IC50 (Gamma-secretase [1]): 23 nM
solubility [3]: 131 µg/mL (≈ 289 µM)

Fc1ccc(N2CCCCn3nc(N[C@@H]4[C@@H]5CC[C@H]4CN(c4ccnc(C(F)(F)F)c4)C5)nc32)cc1F
IC50 (Gamma-secretase [1]): 34 nM

Cc1cc(N2C[C@H]3CC[C@@H](C2)[C@@H]3Nc2nc3n(n2)CCCN3c2ccc(F)c(F)c2)ncn1
efflux ratio (P-gp (ABCB1)): 3.2
hepatocyte CLint [2]: 2 µL/min/1e6 cells
IC50 (Gamma-secretase [1]): 25 nM
solubility [3]: 161 µg/mL (≈ 356 µM)

Cc1cc(N2C[C@H]3CC[C@@H](C2)[C@@H]3Nc2nc3n(n2)CCCC[C@H]3c2ccc(F)c(F)c2F)ncn1
fraction unbound [5]: 0.014
clearance [6]: 5 mL/min/kg
efflux ratio (P-gp (ABCB1)): 2.4
hepatocyte CLint [2]: 4.5 µL/min/1e6 cells
fraction unbound [7]: 0.014
IC50 (Mus musculus): 2.5 nM
half-life [8]: 204 min
hepatocyte CLint [9]: 1.4 µL/min/1e6 cells
Activity [10]: Non-Toxic
efflux ratio (P-gp): 3.3
logD [11]: 3.8
fraction unbound [12]: 0.054
Vd [13]: 1.1 L/kg
IC50 [14]: 2 nM
hepatocyte CLint [15]: 43 µL/min/1e6 cells
IC50 (Gamma-secretase [16]): 4 nM
Drug metabolism [17]: Not Active
IC50 (Gamma-secretase [18]): 4 nM
IC50 [4]: 1400 nM
IC20 (hERG (KCNH2)): 300 nM
IC50 [19]: 4 nM
bioavailability [20]: 53%
IC50 (Gamma-secretase [21]): 2 nM

Cc1cc(N2C[C@H]3CC[C@@H](C2)[C@@H]3Nc2nc3n(n2)CCCN3c2cc(F)cc(F)c2)ncn1
fraction unbound [5]: 0.014
hepatocyte CLint [2]: 2.4 µL/min/1e6 cells
fraction unbound [7]: 0.006
IC50 (Mus musculus): 3 nM
clearance [22]: 3.5 mL/min/kg
hepatocyte CLint [9]: 0.6 µL/min/1e6 cells
Activity [10]: Non-Toxic
logD [11]: 3.5
solubility [3]: 6 µg/mL (≈ 13.3 µM)
fraction unbound [12]: 0.01
IC50 [14]: 3 nM
hepatocyte CLint [15]: 6.4 µL/min/1e6 cells
Drug metabolism [17]: Not Active
IC50 [19]: 5 nM
Vd [23]: 1.1 L/kg
half-life [24]: 276 min
bioavailability [25]: 82%

Cc1cc(N2C[C@H]3CC[C@@H](C2)[C@@H]3Nc2nc3n(n2)CCN3c2ccc(C(F)(F)F)cc2)ncn1
IC50 (Gamma-secretase [1]): 26 nM

Fc1ccc(C2CCn3nc(N[C@@H]4[C@@H]5CC[C@H]4CN(c4ccnc(C(F)(F)F)c4)C5)nc32)cc1F (some centres undefined)
IC50 (Gamma-secretase [1]): 88 nM

Cc1cc(N2C[C@H]3CC[C@@H](C2)[C@@H]3Nc2nc3n(n2)CCCCN3c2ccc(C(F)(F)F)cc2)ncn1
IC50 (Gamma-secretase [1]): 19 nM

Cc1nnc(N2C[C@H]3CC[C@@H](C2)[C@@H]3Nc2nc3n(n2)CCCCC3c2ccc(F)c(F)c2F)o1 (mixture of isomers)
IC50 (Gamma-secretase [1]): 49 nM

FC(F)(F)c1cccc(C2CCCCn3nc(N[C@@H]4[C@@H]5CC[C@H]4CN(c4cnnc(Cl)c4)C5)nc32)c1 (mixture of isomers)
IC50 (Gamma-secretase [1]): 31 nM

Fc1ccc(C2CCCn3nc(N[C@@H]4[C@@H]5CC[C@H]4CN(c4cc(Cl)ncn4)C5)nc32)c(F)c1F (mixture of isomers)
IC50 (Gamma-secretase [1]): 30 nM

COc1cc(N2C[C@H]3CC[C@@H](C2)[C@@H]3Nc2nc3n(n2)CCCCC3c2ccc(F)c(F)c2F)ccn1 (mixture of isomers)
efflux ratio (P-gp (ABCB1)): 1.2
hepatocyte CLint [2]: 6 µL/min/1e6 cells
IC50 (Gamma-secretase [1]): 14 nM
solubility [3]: 3.2 µg/mL (≈ 6.42 µM)

Fc1ccc(C2CCn3nc(N[C@@H]4[C@@H]5CC[C@H]4CN(c4ccnc(C(F)(F)F)c4)C5)nc32)c(F)c1F (mixture of isomers)
IC50 (Gamma-secretase [1]): 126 nM

Fc1ccc(C2CCCCn3nc(N[C@@H]4[C@@H]5CC[C@H]4CN(c4cc(Cl)ncn4)C5)nc32)c(F)c1F (mixture of isomers)
efflux ratio (P-gp (ABCB1)): 1.5
hepatocyte CLint [2]: 2.6 µL/min/1e6 cells
IC50 (Gamma-secretase [1]): 14 nM
solubility [3]: < 0.3 µg/mL

COc1cc(N2C[C@H]3CC[C@@H](C2)[C@@H]3Nc2nc3n(n2)CCCCC3c2cccc(C(F)(F)F)c2)cnn1 (mixture of isomers)
IC50 (Gamma-secretase [1]): 40 nM

Cc1cc(N2C[C@H]3CC[C@@H](C2)[C@@H]3Nc2nc3n(n2)CCCCC3c2ccc(F)c(F)c2F)ncn1 (mixture of isomers)
efflux ratio (P-gp (ABCB1)): 2.1
hepatocyte CLint [2]: 3.1 µL/min/1e6 cells
IC50 (Gamma-secretase [1]): 15 nM
solubility [3]: 0.7 µg/mL (≈ 1.45 µM)

Fc1ccc(C2CCCCn3nc(N[C@@H]4[C@@H]5CC[C@H]4CN(c4ccnc(C(F)(F)F)c4)C5)nc32)c(F)c1F (mixture of isomers)
IC50 (Gamma-secretase [1]): 31 nM

Cc1nnc(N2C[C@H]3CC[C@@H](C2)[C@@H]3Nc2nc3n(n2)CCCC3c2ccc(F)c(F)c2F)o1 (mixture of isomers)
IC50 (Gamma-secretase [1]): 237 nM

Cc1cc(N2C[C@H]3CC[C@@H](C2)[C@@H]3Nc2nc3n(n2)CCCCC3c2cccc(C(F)(F)F)c2)ncn1 (mixture of isomers)
efflux ratio (P-gp (ABCB1)): 2.2
hepatocyte CLint [2]: 14 µL/min/1e6 cells
IC50 (Gamma-secretase [1]): 19 nM
solubility [3]: 34 µg/mL (≈ 68.3 µM)

Cc1cc(N2C[C@H]3CC[C@@H](C2)[C@@H]3Nc2nc3n(n2)CCCCC3c2ccc(F)c(F)c2F)cnn1 (mixture of isomers)
efflux ratio (P-gp (ABCB1)): 20
hepatocyte CLint [2]: 2.1 µL/min/1e6 cells
IC50 (Gamma-secretase [1]): 30 nM
solubility [3]: 188 µg/mL (≈ 389 µM)

Cc1cc(N2C[C@H]3CC[C@@H](C2)[C@@H]3Nc2nc3n(n2)CCCC3c2ccc(C(F)(F)F)cc2)ncn1 (mixture of isomers)
IC50 (Gamma-secretase [1]): 25 nM

Cc1cc(N2C[C@H]3CC[C@@H](C2)[C@@H]3Nc2nc3n(n2)CCCCC3c2ccc(F)c(F)c2F)on1 (mixture of isomers)
IC50 (Gamma-secretase [1]): 39 nM

Cc1cc(N2C[C@H]3CC[C@@H](C2)[C@@H]3Nc2nc3n(n2)CCCCC3c2ccc(F)c(F)c2)ncn1 (mixture of isomers)
hepatocyte CLint [2]: 6.5 µL/min/1e6 cells
IC50 (Gamma-secretase [1]): 23 nM

Fc1ccc(C2CCCCn3nc(N[C@@H]4[C@@H]5CC[C@H]4CN(c4cnnc(Cl)c4)C5)nc32)c(F)c1F (mixture of isomers)
efflux ratio (P-gp (ABCB1)): 4.3
hepatocyte CLint [2]: 3.3 µL/min/1e6 cells
IC50 (Gamma-secretase [1]): 14 nM
solubility [3]: 14 µg/mL (≈ 27.8 µM)

COc1cc(N2C[C@H]3CC[C@@H](C2)[C@@H]3Nc2nc3n(n2)CCCCC3c2ccc(F)c(F)c2F)ncn1 (mixture of isomers)
IC50 (Gamma-secretase [1]): 29 nM
IC50 [4]: 550 nM
IC20 (hERG (KCNH2)): 200 nM

Cc1noc(N2C[C@H]3CC[C@@H](C2)[C@@H]3Nc2nc3n(n2)CCCCC3c2ccc(F)c(F)c2F)n1 (mixture of isomers)
IC50 (Gamma-secretase [1]): 44 nM

Fc1ccc(C2CCCn3nc(N[C@@H]4[C@@H]5CC[C@H]4CN(c4ccnc(C(F)(F)F)c4)C5)nc32)c(F)c1F (mixture of isomers)
IC50 (Gamma-secretase [1]): 44 nM

Cc1cc(N2C[C@H]3CC[C@@H](C2)[C@@H]3Nc2nc3n(n2)CCCCC3c2ccc(C(F)(F)F)cc2)ncn1 (mixture of isomers)
IC50 (Gamma-secretase [1]): 14 nM
